System: 5-hydroxy tryptophan (5-HTP)
Test: potentialisation of 5-HTP in the rat (anti-depressive activity)
Format: in vivo
Conditions: 1 h, oral administration, 5-HTP intraperitoneally one hour after the first treatment, read-out: ED50 (dose producing generalised tremors or stereotypy in 50% of the animals)
Text: The anti-depressive activity was shown by the test of potentialisation of 5-HTP in the rat by the method described by M. JALFRE, B. BUCHER, A. COSTON, G. MOCQUET and R. D. PORSOLT: Arch. Int. Pharmacodyn., (1982), 259, 194-221. A determination on the rat was made of that dose of the product which, orally administered, produces generalised tremors or stereotypy (drumming, head movements) in 50% of the animals (ED50) after intraperitoneal administration of 5-hydroxy tryptophan (5-HTP) one hour after the first treatment. The results obtained in the preceding test, using some compounds according to the invention, are given by way of example in the following table: […]

Compound	ED50
COC[C@H]1CN(c2ccc(OCC[C@@H](OCc3ccncc3)C(F)(F)F)cc2)C(=O)O1 [MD 290057, 3-[4-[4,4,4-trifluoro 3-(4-pyridylmethoxy)(R)butoxy]phenyl]5-methoxymethyl(R)2-oxazolidinone]	0.53 mg/kg
COC[C@H]1CN(c2ccc(OCC[C@@H](OCc3ccc[n+]([O-])c3)C(F)(F)F)cc2)C(=O)O1 [MD 290065, 3-[4-[4,4,4-trifluoro3-(3-N-oxide-pyridylmethoxy)(R)butoxy]phenyl]5-methoxymethyl(R) 2-oxazolidinone]	0.62 mg/kg
COC[C@H]1CN(c2ccc(OCC[C@@H](OCc3cccnc3)C(F)(F)F)cc2)C(=O)O1 [MD 360411 (oxalate), 3-[4-[4,4,4-trifluoro 3-(3-pyridylmethoxy)(R)butoxy]phenyl]5-methoxymethyl(R)2-oxazolidinone]	0.4 mg/kg

Reference: patent publication US5264443A, “3-aryl oxazolidinone compounds and therapeutic use thereof” (Delalande S.A., priority 1991, dated 1993)
